Test results as given in US20110245171A1, “REHYDRATION COMPOSITIONS COMPRISING EPIDERMAL GROWTH FACTOR (EGF)” (priority 2004, published 2011).

Experiments:
giardiasis = conditions: compared to untreated animals, literature; cited from earlier work
bacteria and protozoa = conditions: literature; cited from earlier work
[1] = system: piglets with spontaneous neonatal diarrhea; experiment: Spontaneous neonatal diarrhea in piglets, oral EGF; assay type: in vivo
Description: A pregnant sow was purchased from a local commercial supplier (Doug Hall, Airdrie, AB) approximately one week prior to due-date. The sow was housed at the University of Calgary farm in a farrowing pen. The sow was given free access to water and pig feed (Doug Hall, Airdrie, AB). Two-day old piglets were weight ranked and randomly assigned to each experimental group (see below), and treatment was initiated that day (Day 0) and animals assessed 24 hr later. […] Piglets with their sow were housed separately in contained animal facilities for the duration of the experiment at the University of Calgary farm. Housing was at 20° C., with approximate 8:16 h photoperiods.
Piglets were assigned to one of the following experimental groups: 1) untreated animals gavaged orally with 5 mL sterile PBS daily starting on Day 0, and 2) EGF-treated, gavaged orally with rhEGF in 5 mL sterile PBS at a concentration of 100 μg/kg body weight daily starting on Day 0.
The study was terminated on Day 1. A total of 10 piglets were studied, 5 were given EGF, and 5 received vehicle (untreated).
Piglets were checked daily for weight gain, production of diarrhea, and overall clinical condition (alertness, body posture, condition). In addition, daily fecal scoring was carried out twice daily (9:00 am, and 3:00 pm) as follows: 0=solid, formed stools, 1=soft stools with no perineal soiling, 2=non-bloody diarrhea with perineal soiling, 3=bloody diarrhea with perineal soiling.
All morning observations were performed between 7:00 am and 12:00 pm to avoid diurnal variations. One additional fecal scoring was carried out at 3:00 pm.

Salmonella typhimurium = conditions: in vitro, literature; cited from earlier work
Cryptosporidium parvum = conditions: in vitro, literature; cited from earlier work
[2] = system: jejunal nutrient transport; conditions: cited from earlier work
[3] = system: pathogenic strains of Escherichia coli; conditions: in vitro, literature; cited from earlier work
enteropathogenic E. coli = conditions: literature; cited from earlier work
C. parvum = conditions: literature; cited from earlier work
K88 positive E. coli = experiment: Enteropathogenic E. coli infection in piglets, oral EGF; assay type: in vivo
Description: An enteropathogenic Escherichia coli isolate obtained from Veterinary Pathology Laboratories (VPL), Edmonton, Alberta was utilized in these experiments. This strain was originally isolated from a piglet with diarrhea and is positive for Stb, Lt, and K88 (F4). This strain is referred to as K88 positive E. coli. Enteropathogenic E. coli infections produce primarily a malabsorptive diarrhea, although there is a smaller secretory component.
Bacteria were grown in LB™ broth (Difco Laboratories, Detroit, Mich.) and frozen on Microbank™ porous beads (Pro-Labs Diagnostics, Richmond Hill, ON) at −70° C. For each inoculum preparation, one bead was thawed and incubated in 20 ml sterile LB™ broth for 5 h at 37° C., 200 rpm. Then, the 20 ml starter culture was placed in 980 ml LB™ broth and incubated at 37° C. for 15 hours, 200 rpm. LB™ broth was aliquoted in 18 sterile polystyrene 50 ml tubes (Falcon), centrifuged at 3000 rpm (floor Sorval) for 10 minutes, and all pellets pooled and resuspended in 50 ml 10% […]-sterile PBS.
Inoculum: Piglets received late log phase 1×10^10 (counted by spectrophotometry, 600 nm, A=1.9) live K88 positive E. coli. Bacterial inoculum was delivered in 10% NaHCO3/sterile PBS (5 ml), followed by lactate Ringer's solution (5 ml). The inoculum (10 ml) was delivered via a 40 cm orogastric intubation tube connected to a 20 cc syringe. Total bacterial counts in inoculum were calculated via serial dilutions plated onto LB™ agar and incubated overnight at 37° C., 5% CO2.
A pregnant sow was purchased from a local commercial supplier (Doug Hall, Airdrie, AB) approximately one week prior to due-date. The sow was housed at the University of Calgary farm in a farrowing pen. The sow was given free access to water and pig feed (Doug Hall, Airdrie, AB). Two-day old piglets were weight ranked and randomly assigned to each experimental group (see below), and treatment was initiated that day (Day-1). Inoculation with live K88 positive E. coli was carried out the following day (Day 0). […]

[4] = system: jejunal tissue from rabbits infected with attaching-effacing E. coli (RDEC-1); experiment: Jejunal 3-O-methyl glucose transport in Ussing chambers; design: species or system rabbit
Description: Rabbits infected with attaching-effacing E. coli (RDEC-1) were used (20). Briefly, experimental rabbits (400-600 g) were orally inoculated with 5×10^7 live E. coli in 1 mL 10% sodium bicarbonate. Controls received sodium bicarbonate only. Animals were housed individually in a level B containment room, fed commercial feed and given water ad libitum. Ten days post-infection, all animals were killed with an intra-peritoneal overdose of sodium pentabarbitone following anesthesia with halothane. A 20-cm segment of jejunum beginning 5 cm distal to the ligament of Treitz was then removed and rinsed with ice-cold Kreb's buffer. Both longitudinal and circular muscle layers were stripped from the underlying mucosa and four adjacent pieces of jejunal tissue mounted under short-circuited conditions in Ussing chambers. Both mucosal and serosal surfaces were bathed in 10 ml of oxygenated Kreb's buffer with 10 mM glucose added to the serosal surface to provide metabolic energy to the tissue, 10 mM mannitol added to the mucosal surface to osmotically balance the glucose solution, and 20 mM 3-O-methyl glucose added to both surfaces. Immediately after mounting, 10 μCi 3-O-methyl[^3H]glucose was added to either the serosal or mucosal surface and allowed to equilibrate for 20 min. 3-O-methyl glucose is a non-metabolized glucose analog. Unidirectional mucosal to serosal (Jms) and serosal to mucosal (Jsm) fluxes were then determined by measuring 3 consecutive 5 min flux intervals and an overall 15 min flux interval before and after the addition of 100 ng/ml human recombinant epidermal growth factor (rhEGF) (Austral Biologicals, San Ramon, Calif.) or vehicle to the mucosal reservoir. Net flux (Jnet) was calculated by subtracting the serosal to mucosal flux, Jsm, from the mucosal to serosal flux, Jms. Clinical symptoms were monitored including fecal shedding of the bacterium.

[5] = infected tissue treated with EGF compared to controls
[6] = infected tissue, 10 days post-infection, 100 ng/ml rhEGF on mucosal surface

EGF: 53-amino acid human epidermal growth factor of SEQ ID NO: 1; recombinant human EGF used in the experiments
intestinal function (giardiasis): enhanced | trophozoite colonization (giardiasis): inhibited | anti-protozoal effect (bacteria and protozoa): no direct | bactericidal effect (bacteria and protozoa): no direct | fecal scores ([1]; Day 1, one day after initiation of treatment, rhEGF 100 μg/kg oral, compared with vehicle): significantly (P<0.05) reduced | animals that had died ([1]; Day 1, 5 piglets given EGF, 2 untreated died): 1 | weight gain ([1]; EGF compared to untreated): did not differ | epithelial bacterial translocation and invasion (Salmonella typhimurium): inhibit | epithelial colonization (Cryptosporidium parvum): reduce | SGLT1 content in the microsomal fraction [2]: decrease | enterocyte glucose transport [2]: increase | defect in glucose transport ([2]; following administration of octreotide, literature): reverse | BBMV SGLT1 content ([2]; literature): significant increase | amino acid transport ([2]; literature): rapidly increases | brush border (apical) surface area ([2]; literature): increase | glucose transport ([2]; literature): rapidly increases | ileal electroneutral NaCl absorption and brush-border Na+/H+ exchange ([2]; literature): increase | jejunal glutamine, alanine galactose and glycine transport ([2]; literature): increase | Vmax for glucose uptake into brush border membrane vesicles (BBMV) ([2]; mucosal EGF, literature): increased | Vmax for proline uptake into brush border membrane vesicles (BBMV) ([2]; mucosal EGF, literature): increased | epithelial bacterial translocation and invasion [3]: inhibit | bacterial colonization (enteropathogenic E. coli): significantly inhibited | diarrhea and reduced weight gain associated with the disease (enteropathogenic E. coli): prevented | epithelial damage (enteropathogenic E. coli): reduced | fecal oocyte passage (C. parvum): decreased | weight gain (K88 positive E. coli; EGF-treated compared to untreated, over the course of the study): did not differ | acceleration of return to normal fecal consistency (K88 positive E. coli; compared to untreated animals (day 3 instead of day 4)): one day | day by which fecal scores returned to normal (fecal score of 0 in all animals) (K88 positive E. coli; rhEGF 100 μg/kg oral gavage daily from Day -1, infected Day 0, untreated: Day 4): ≤ 3 days | mucosal to serosal 3-O-methyl glucose transport [4, 5]: did not differ | net 3-O-methyl glucose transport [4, 5]: did not differ | mucosal to serosal flux of 3-O-methyl glucose [4, 6]: significantly increased | net flux of 3-O-methyl glucose [4, 6]: significantly increased

TGFα: related peptide that binds to the EGF receptor [reference compound]
brush border (apical) surface area ([2]; literature): had no effect | glucose transport ([2]; literature): had no effect | small intestinal absorption ([2]; some studies, literature): increase
